According to ChEMBL document CHEMBL3860072, “Synthesis of a selective HDAC6 inhibitor active in neuroblasts” (Bioorg Med Chem Lett, 2016):

How the values were obtained:
[1] = Effective passive permeability of the compound at 100 uM at pH 7.4 after 18 hrs by UHPLC-UV based PAMPA-BBB assay; format: ADME; details: read-out: Peff
[2] = Effective passive permeability of the compound assessed as membrane retention at 100 uM at pH 7.4 after 18 hrs by UHPLC-UV based PAMPA-BBB assay; format: ADME; details: pH 7.4, 18 h
[3] = Inhibition of HDAC in human SHSY5Y cells using MAL as substrate after 8 hrs by UHPLC-ESI-MS/MS analysis; format: cell-based; details: SH-SY5Y
[4] = target: Histone deacetylase 1/2/3 (Homo sapiens, UniProt Q13547+O15379+Q92769); format: protein assay
Histone deacetylase 1 [5] = target: T1, Histone deacetylase 1 (Homo sapiens, UniProt Q13547); assay: biochemical
T1 sequence (Q13547 whole entry): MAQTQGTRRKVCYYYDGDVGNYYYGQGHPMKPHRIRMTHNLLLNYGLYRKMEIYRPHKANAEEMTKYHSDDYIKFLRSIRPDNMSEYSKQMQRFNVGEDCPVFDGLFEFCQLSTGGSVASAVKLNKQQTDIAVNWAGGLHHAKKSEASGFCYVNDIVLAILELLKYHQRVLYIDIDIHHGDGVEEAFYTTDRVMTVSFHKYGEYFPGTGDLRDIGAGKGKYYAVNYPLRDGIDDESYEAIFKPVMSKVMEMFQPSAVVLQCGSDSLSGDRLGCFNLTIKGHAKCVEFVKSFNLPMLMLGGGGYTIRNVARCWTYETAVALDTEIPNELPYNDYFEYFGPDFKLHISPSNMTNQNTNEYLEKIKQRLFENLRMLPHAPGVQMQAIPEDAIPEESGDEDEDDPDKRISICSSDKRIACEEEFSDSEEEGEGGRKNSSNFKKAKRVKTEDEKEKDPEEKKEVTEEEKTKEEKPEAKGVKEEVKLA

Histone deacetylase 1 [6] = target: T1, Histone deacetylase 1
[7] = target: T2, Protein deacetylase HDAC6 (Homo sapiens, UniProt Q9UBN7); assay: Inhibition of human recombinant HDAC6 expressed in baculovirus infected insect cells using BATCP as substrate after 4 hrs by UHPLC-ESI-MS/MS analysis
T2 sequence (Q9UBN7 whole entry): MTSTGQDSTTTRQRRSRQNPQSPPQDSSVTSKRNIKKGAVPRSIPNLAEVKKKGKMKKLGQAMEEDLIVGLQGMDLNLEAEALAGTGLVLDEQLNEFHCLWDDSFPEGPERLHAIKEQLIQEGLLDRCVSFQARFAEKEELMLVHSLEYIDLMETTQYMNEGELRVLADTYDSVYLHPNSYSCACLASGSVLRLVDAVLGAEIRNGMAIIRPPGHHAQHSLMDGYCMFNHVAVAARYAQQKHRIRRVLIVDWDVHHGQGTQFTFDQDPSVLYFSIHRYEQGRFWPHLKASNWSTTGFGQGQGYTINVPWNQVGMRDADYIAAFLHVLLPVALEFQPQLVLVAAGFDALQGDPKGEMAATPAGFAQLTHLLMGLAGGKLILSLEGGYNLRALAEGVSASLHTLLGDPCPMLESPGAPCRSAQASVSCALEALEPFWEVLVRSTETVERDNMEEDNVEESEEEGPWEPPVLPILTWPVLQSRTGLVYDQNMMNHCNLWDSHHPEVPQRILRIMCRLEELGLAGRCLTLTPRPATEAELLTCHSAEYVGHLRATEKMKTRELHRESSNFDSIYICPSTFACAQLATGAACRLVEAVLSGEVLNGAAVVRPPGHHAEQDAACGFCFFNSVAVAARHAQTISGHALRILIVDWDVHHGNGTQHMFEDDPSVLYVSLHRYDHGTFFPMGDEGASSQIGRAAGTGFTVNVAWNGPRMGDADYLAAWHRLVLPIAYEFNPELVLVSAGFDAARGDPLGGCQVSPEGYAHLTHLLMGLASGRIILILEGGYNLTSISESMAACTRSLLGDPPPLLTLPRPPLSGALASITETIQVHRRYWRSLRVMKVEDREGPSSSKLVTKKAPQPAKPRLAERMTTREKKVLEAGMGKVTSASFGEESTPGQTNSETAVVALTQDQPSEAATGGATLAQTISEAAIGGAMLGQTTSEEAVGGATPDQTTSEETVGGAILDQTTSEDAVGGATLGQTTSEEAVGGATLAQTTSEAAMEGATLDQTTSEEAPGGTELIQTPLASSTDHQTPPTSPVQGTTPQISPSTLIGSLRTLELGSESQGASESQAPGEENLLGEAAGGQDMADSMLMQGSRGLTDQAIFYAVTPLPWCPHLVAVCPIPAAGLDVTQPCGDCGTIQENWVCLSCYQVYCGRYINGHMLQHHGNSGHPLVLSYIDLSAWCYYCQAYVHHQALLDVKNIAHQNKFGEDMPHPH

[8] = target: T2, Protein deacetylase HDAC6; assay: Inhibition of HDAC6 in human SHSY5Y cells using BATCP as substrate after 8 hrs by UHPLC-ESI-MS/MS analysis; format: cell-based, SH-SY5Y

Papp at 18 h, 100 µM [1] [×10⁻⁶ cm/s] | R% [2] [%] | IC50 [3] [nM] | IC50 [4] [nM] | IC50 (Histone deacetylase 1 [5]) [nM] | IC50 (Histone deacetylase 1 [6]) [nM] | IC50 [7] [nM] | IC50 [8] [nM] | SMILES
< 2 | < 1 | – | – | – | – | – | – | CC(C)(C)OC(=O)ON(C(=O)CCCCCCC(=O)N(OC(=O)OC(C)(C)C)C(=O)OC(C)(C)C)C(=O)OC(C)(C)C
< 2 | < 1 | – | – | – | – | – | – | O=C(CCCCCCC(=O)NO)NO [SUBEROHYDROXAMIC ACID]
6.8 | 70.8 | 122 | – | – | – | – | – | CN1CCc2c(c3ccccc3n2Cc2ccc(C(=O)NO)cc2)C1 [TUBASTATIN A]
– | – | 9.1 | – | – | – | – | – | CC(/C=C/C(=O)NO)=C\[C@@H](C)C(=O)c1ccc(N(C)C)cc1 [TRICHOSTATIN]
8.7 | 6.8 | 310 | 188.1 | 560 | 973 | 36.7 | 164 | O=C(CCCCCc1ccc2c(c1)OCO2)NO
